According to US20190070165A1, “N-HYDROXYISOQUINOLINEDIONE INHIBITORS OF HBV REPLICATION” (Saint Louis University, priority 2016, published 2019):

What was measured:
[1] = target: T1, HBV polymerase (Hepatitis B virus genotype D subtype ayw, UniProt P03156); assay: Endogenous polymerase reaction (EPR) in isolated HBV capsids; assay type: biochemical; details: inhibitors at 4× EC50; #138 and #211 at 30 μM; ddTTP 5.7 μM
T1 construct: expressed in transfected cells; host or cells: HepDES19 (HepG2 with a stably transfected HBV genotype D genome)
T1 sequence (P03156 whole entry): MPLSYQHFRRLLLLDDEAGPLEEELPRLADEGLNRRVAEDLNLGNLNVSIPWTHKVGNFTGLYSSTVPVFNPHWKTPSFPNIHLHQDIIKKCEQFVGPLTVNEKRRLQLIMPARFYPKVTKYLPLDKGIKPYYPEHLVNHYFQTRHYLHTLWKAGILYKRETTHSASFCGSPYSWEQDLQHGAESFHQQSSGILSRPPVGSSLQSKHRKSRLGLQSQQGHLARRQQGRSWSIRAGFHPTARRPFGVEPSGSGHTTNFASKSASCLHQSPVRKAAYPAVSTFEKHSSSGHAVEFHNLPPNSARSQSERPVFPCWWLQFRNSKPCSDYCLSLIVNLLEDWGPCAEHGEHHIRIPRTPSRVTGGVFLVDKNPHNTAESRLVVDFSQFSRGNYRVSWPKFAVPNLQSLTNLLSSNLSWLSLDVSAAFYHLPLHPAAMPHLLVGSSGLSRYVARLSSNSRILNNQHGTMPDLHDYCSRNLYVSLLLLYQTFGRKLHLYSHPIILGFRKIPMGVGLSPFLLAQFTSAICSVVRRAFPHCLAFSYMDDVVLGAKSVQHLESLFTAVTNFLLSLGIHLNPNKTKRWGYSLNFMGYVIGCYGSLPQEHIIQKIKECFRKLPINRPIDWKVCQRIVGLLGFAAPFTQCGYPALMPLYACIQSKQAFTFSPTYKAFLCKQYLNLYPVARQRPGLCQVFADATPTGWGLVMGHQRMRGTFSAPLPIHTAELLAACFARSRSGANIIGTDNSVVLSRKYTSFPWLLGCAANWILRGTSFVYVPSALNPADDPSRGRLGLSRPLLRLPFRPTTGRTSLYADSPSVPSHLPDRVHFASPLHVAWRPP
Text: Anti-RNaseH activity is implied from their preferential suppression of the plus-polarity DNA strand (FIG. 4), but strand-preferential inhibition could also result from inhibiting the polymerase also. This is because positive-polarity DNA synthesis can be suppressed both directly by inhibiting the RNaseH enzyme and indirectly by reducing the amount of negative-polarity DNA strand that templates the positive-polarity strand, whereas minus-polarity DNA synthesis can only be suppressed by chain termination. To determine if the efficacy of these compounds was due to inhibition of the HBV polymerase, capsids isolated from HepDES19 cells were tested in the endogenous polymerase reaction (EPR) to measure DNA chain elongation by the HBV polymerase along the HBV nucleic acids within the capsids. Isolated HBV capsids were supplied with dATP, dTTP, dGTP, and [α^32P]dCTP in the presence of inhibitors at 4× their EC50 values; negative control compounds #138 and #211 were tested at 30 μM. 1% DMSO was used as a vehicle control, and ddTTP (5.7 μM) was the positive control polymerase inhibitor. Samples were incubated at 37° C. for 7 hours to permit DNA chain elongation by the encapsidated HBV polymerase. Nucleic acids were purified, resolved on a 0.8% agarose gel and detected by autoradiography. DNAs from HBV capsids treated with the compounds incorporated ^32P similarly to DMSO control (FIG. 5).
HBV cores were harvested from HepDES19 cells grown in the absence of tetracycline for 20 days using polyethylene glycol 8000 precipitation (Guo et al., 2003). Cells were rinsed in PBS and lysed in 1 mL core lysis buffer with 2 μL of protease inhibitor cocktail (Sigma) at room temperature for 10 minutes. Cell lysates were collected and 10 mM CaCl2) was added. The lysate was centrifuged for 5 minutes at 21,000 g, the supernatant was incubated with 150 U of micrococcal nuclease at 37° C. for 60 minutes, and then 27 mM EDTA was added to stop the reaction. 333 μL of 26% PEG8000 was added to precipitate core particles and incubated at 4° C. for 6 hours. The samples were centrifuged at 21,000 g for 20 minutes at 4° C. The supernatant was removed and the pellet was resuspended in 250 μL of 10 mM Tris buffer pH 7.5. Cores were stored at −80° C.
The endogenous polymerase reaction was done using a modified procedure from (Nguyen et al., 2007). […] These nucleic acids were dissolved in tris-EDTA buffer, resolved on a 0.8% agarose gel, transferred to a HyBondN membrane, and detected by autoradiography. Band intensities for each experiment were quantified using Image J and percent inhibition was calculated relative to the DMSO-treated reactions. Statistical significance of variation in band intensities was evaluated using a one-way ANOVA with a Dunnett post hoc analysis, with p=0.05 indicating significance.

[2] = tested on: HSV-1; assay: HSV-1 replication inhibition assay in Vero cells; assay type: cell-based, herpes simplex virus 1; details: Human alphaherpesvirus 1, 24 h; 5 μM, Vero cells; read-out: HSV-1 suppression (log10 at 5 μM), class symbol
[3] = target: HBV RNaseH (Hepatitis B virus genotype D subtype ayw, UniProt P03156); details: Table 3, compounds at 100, 60 and 20 μM; compounds 1-91 and 138-140 previously reported (Cai et al., 2014)
Sequence of HBV RNaseH (P03156 671-832): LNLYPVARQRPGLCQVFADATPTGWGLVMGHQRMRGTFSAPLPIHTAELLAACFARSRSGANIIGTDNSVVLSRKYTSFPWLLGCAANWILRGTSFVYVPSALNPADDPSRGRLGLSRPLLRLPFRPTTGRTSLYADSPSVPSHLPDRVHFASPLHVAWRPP

SMILES: O=C1c2ccccc2C(=O)N1O [Compound 138]
- effect on 32P incorporation in EPR [1]: None of the HBV inhibitors or the two negative control compounds (#138 and 211) significantly altered incorporation
- log reduction at 5 µM [2]: < 1
- Inhibition of HBV RNaseH, Oligonucleotide directed cleavage assay [3]: − (No inhibition detected at 100 μM)
